Experimental data from US20030176436A1, “Novel heterocyclic compounds as selective bacterial DHFR inhibitors and their uses thereof” (priority 2001, published 2003).
In brackets after ≈: the same amount, converted by molar mass. Like-named read-outs stand apart in the source and are kept apart here.

Columns and labels:
S. cerevisiae = test: Microdilution susceptibility test (MIC), yeast as indicator of cytotoxicity; assay type: cell-based; settings: Saccharomyces cerevisiae; Table 2; 90% inhibition of growth
Source text: The following table of compounds of one aspect of the invention have potent antimicrobial activity against S. aureus bacteria and are anticipated to have physical-chemical properties similar to those of orally absorbed and bioavailable drugs and drug-like compounds. Antibacterial activity for a variety of bacterial species are shown (S. aureus, S. pneumoniae, E. faecalis, M. catarrhalis, and H. influenzae). The yeast cell (S. cerevisiae) in this panel of organisms is an indicator of potential cytotoxicity in mammalian cells.
(§1) Stock solutions of tested compounds were prepared in N,N-dimethylformamide (DMF) at a concentration of 5 mg/mL. Working solutions of the tested compounds were then prepared from the stock solutions, in Mueller-Hinton broth (MHB) with a starting concentration of 64 μg/mL.
(§2) Microplate wells were filled with two-fold dilutions of test compound (50 μl), starting with 64 μg/ml. Wells were then filled with 50 μl of bacterial inoculum (final volume: 100 μl/well). The plates were incubated at 37° C. for 18-24 hours (S. pneumoniae was grown in a CO2-enriched atmosphere).

human DHFR (hDHFR) = molecular target: T1, human DHFR (hDHFR) (Homo sapiens, UniProt P00374); test: DHFR enzyme assay, Ki determination, human DHFR; assay type: biochemical; settings: Table 3
T1 construct: result in the amplification of a 186 amino acid hDHFR coding region; made in house; host or cells: E. coli Top10
T1 sequence (P00374 1-187): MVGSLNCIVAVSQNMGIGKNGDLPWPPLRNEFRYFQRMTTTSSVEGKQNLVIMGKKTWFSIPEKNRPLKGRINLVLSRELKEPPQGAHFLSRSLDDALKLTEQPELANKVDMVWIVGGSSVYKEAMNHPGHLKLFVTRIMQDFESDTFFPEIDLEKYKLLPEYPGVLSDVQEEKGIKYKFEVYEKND
Protocol: The human DHFR cDNA was cloned by PCR from the Human Universal Quick-clone™ cDNA purchased from Clontech.
The PCR fragment was digested with restriction enzymes NdeI and HindIII, and then ligated into a derivative of the pKK223-3 expression vector (Amersham Pharmacia). The final expression vector (pFW96.2) was transformed into E. coli Top10 F40 and hDHFR protein was induced by the addition of 1 mM IPTG followed by incubation at 37° C. for 4 hrs. Recombinant human DHFR was purified based on a previously published procedure (2).
(§3) Dihydrofolic acid and NADPH were purchased from Sigma. Enzyme assays were adapted for microtitre format from a previously published procedure (2, 3). All assays were performed in a 250 μl volume in 96-well microtitre plates. Typical assays consisted of 20 nM DHFR (human or E. coli), 100 μM NADPH, and 50 μM dihydrofolic acid in 100 mM HEPES pH 8, 10 mM KCl, and 10 mM MgCl2. The assay was monitored spectrophotometrically for the conversion of NADPH to NADP+, which results in a decrease in absorbance at 340 nm.
(§4) Five microliters of inhibitor compound in DMSO was added to 120 μl of enzyme solution (40 nM DHFR and 200 μM NADPH). The reaction was initiated by the addition of 125 μl of 100 μM dihydrofolic acid. The final concentrations in the assay were 20 nM DHFR, 100 μM NADPH, 50 μM dihydrofolic acid, and a range of 500 μM to 20 nM inhibitor compound. The final DMSO concentration was 2% of the total volume. Reactions were monitored as described above.
V=(Vmax[S])/(Km(1+I/Ki)+[S]), where S=dihydrofolate, Km=Michaelis constant for dihydrofolate, I=inhibitor concentration.

E. coli = test: Microdilution antimicrobial susceptibility test (MIC); assay type: cell-based; settings: Escherichia coli; Table 2; 90% inhibition of growth
Protocol: as §1
(§5) Bacterial inocula were prepared from overnight culture (i.e., one fresh colony from agar plate in 5 ml MHB; H. influenzae was grown in MHB with the addition of yeast extract, haematin, and NAD), centrifuged 2×5 min/3000 rpm (for S. pneumoniae and H. influenzae, 2×10 min/3000 rpm), and dispensed in 5 ml of fresh MHB each time, such that the bacterial suspension is diluted to obtain 100 colony forming units (cfu) in a microplate well (100 μl total volume).
as §2

M. catarrhalis = test: as above; assay type: cell-based; settings: Moraxella catarrhalis; Table 2; 90% inhibition of growth
Protocol: as §1, §5, §2

P. aeruginosa = test: as above; assay type: cell-based; settings: Pseudomonas aeruginosa; Table 2; 90% inhibition of growth
Protocol: as §1, §5, §2

S. aureus [1] = test: as above; assay type: cell-based; settings: Staphylococcus aureus
Protocol: as §1, §5, §2

S. pneumoniae = test: as above; assay type: cell-based; settings: Streptococcus pneumoniae; Table 2; 90% inhibition of growth
Protocol: as §1, §5, §2

E. faecalis = test: as above; assay type: cell-based; settings: Enterococcus faecalis; Table 2; 90% inhibition of growth
Protocol: as §1, §5, §2

H. influenzae = test: as above; assay type: cell-based; settings: Haemophilus influenzae, read-out: MIC H. influenzae
Protocol: as §1, §5, §2

bacterial DHFR (bDHFR) = molecular target: T2, bacterial DHFR (bDHFR) (Escherichia coli, UniProt P0ABQ4); test: DHFR enzyme assay, Ki determination, bacterial DHFR; assay type: biochemical, E. coli
T2 construct: gift of Eric Brown, McMaster University
Protocol: Human and Bacterial DHFR: E. coli DHFR was kindly provided by Eric Brown of MacMaster University.
as §3
as §4, with “The” for “Five microliters of inhibitor compound in DMSO was added to 120 μl of enzyme solution (40 nM DHFR and 200 μM NADPH). The”

S. aureus [2] = test: S. aureus mouse septicaemia model; assay type: in vivo; settings: administered orally; mouse protection model
Protocol: Systemic models of infection are described in the literature. The following conditions can be used to assay the compounds in this application. Bacteria are grown in Mueller-Hinton agar at 37° C. during 24 h. For each experiment, a bacterial suspension is prepared by inoculating 4-5 bacterial colonies onto Mueller-Hinton broth (MHB) and by incubating at 37° C. for 24 hours to yield approximately 10^9 CFU/ml. BalbC female mice are supplied by Charles River (Deutschland). Animals are infected by a single administration of an LD100 dose of bacterial culture suspension (1×10^8 CFU/100 μl per animal) in the tail vein. A careful clinical examination is made several times a day, and obvious clinical symptoms and mortality are recorded. Animals survival is observed for a period of 6 days. Azithromycin is dissolved in 0.5% methocel in saline solution and administered orally. Test compounds are micronized with mortar and pestle and then dissolved in methocel saline solution with 3% of DMF. The first dose is administered 30 minutes after infection, with following doses every 12 hours for 3 days.
In vivo Efficacy Testing—S. aureus Mouse Septicaemia Model.
Several compounds were tested in a S. aureus mouse protection models for efficacy. Two compounds, 25 and 62, protected 40% of treated animals from the lethal infection when administered orally.

[3] = Table 2, 90% inhibition of growth, read-out: MIC S. aureus
[4] = Table 2, 90% inhibition of growth
[5] = second part of table, read-out: bDHFR

SMILES | MIC (S. cerevisiae) | Ki (human DHFR (hDHFR)) | MIC (E. coli) | MIC (M. catarrhalis) | MIC (P. aeruginosa) | MIC (S. aureus [1]; [3]) | MIC (S. pneumoniae) | MIC (E. faecalis) | MIC (H. influenzae; [4]) | Ki (bacterial DHFR (bDHFR); Table 3, read-out: bDHFR Ki) | MIC (H. influenzae) | MIC (S. aureus [1]; MIC, average, read-out: S. aureus (μg/ml) avg) | treated animals protected from the lethal infection (S. aureus [2]) | Ki (bacterial DHFR (bDHFR); average, read-out: bDHFR Ki/(μM) avg) | Ki (bacterial DHFR (bDHFR); [5])
Nc1nc(N)c2nc(CNc3ccc4nc(S)sc4c3)cnc2n1 [Compound 10] | 16 to 64 µg/mL (≈ 44.9 to 180 µM) | > 5000 nM | > 64 µg/mL | < 2 µg/mL | > 64 µg/mL | 2 to 8 µg/mL (≈ 5.61 to 22.4 µM) | 2 to 8 µg/mL (≈ 5.61 to 22.4 µM) | < 2 µg/mL | 16 to 64 µg/mL (≈ 44.9 to 180 µM) | 0.1 to 0.499 µM |  |  |  |  | 
Nc1nc(N)c2nc(CNc3cc(Cl)cc(Cl)c3)cnc2n1 [Compound 11] | > 64 µg/mL | > 5000 nM | > 64 µg/mL | < 2 µg/mL | > 64 µg/mL | < 2 µg/mL | < 2 µg/mL | < 2 µg/mL |  | 0.5 to 0.999 µM | > 64 µg/mL |  |  |  | 
Nc1nc(N)c2nc(CNc3ccc([N+](=O)[O-])cc3O)cnc2n1 [Compound 12] | > 64 µg/mL | 1000 to 5000 nM | > 64 µg/mL | 16 to 64 µg/mL (≈ 48.7 to 195 µM) | > 64 µg/mL | > 64 µg/mL | < 2 µg/mL |  | 2 to 8 µg/mL (≈ 6.09 to 24.4 µM) | 0.1 to 0.499 µM |  |  |  |  | 
CN(Cc1cnc2nc(N)nc(N)c2n1)c1cccc([N+](=O)[O-])c1 [Compound 14] | > 64 µg/mL | > 5000 nM | > 64 µg/mL | < 2 µg/mL | > 64 µg/mL | < 2 µg/mL | < 2 µg/mL | < 2 µg/mL | < 2 µg/mL | < 0.1 µM |  |  |  |  | 
Nc1nc(N)c2nc(CNc3ccc(F)c([N+](=O)[O-])c3)cnc2n1 [Compound 15] | 2 to 8 µg/mL (≈ 6.06 to 24.2 µM) | > 5000 nM | > 64 µg/mL | < 2 µg/mL | > 64 µg/mL | < 2 µg/mL | < 2 µg/mL | < 2 µg/mL | < 2 µg/mL | 0.1 to 0.499 µM |  |  |  |  | 
Nc1nc(N)c2nc(CNc3cccc(OCc4ccccc4)c3)cnc2n1 [Compound 16] | > 64 µg/mL | > 5000 nM | > 64 µg/mL | < 2 µg/mL | > 64 µg/mL | < 2 µg/mL | < 2 µg/mL | < 2 µg/mL | > 64 µg/mL | < 0.1 µM |  |  |  |  | 
COC(=O)c1ccc(N(C)Cc2cnc3nc(N)nc(N)c3n2)cc1 [Compound 17] | > 64 µg/mL |  | > 64 µg/mL | < 2 µg/mL | > 64 µg/mL | < 2 µg/mL | < 2 µg/mL | < 2 µg/mL | < 2 µg/mL | < 0.1 µM |  |  |  |  | 
CC(c1csc2ccccc12)N(C)c1ncc2c(N)nc(N)nc2n1 (centres unmarked) [Compound 25] |  |  |  |  |  |  |  |  |  |  |  | 0.25 µg/mL (≈ 0.711 µM) | 40% | 0.004 µM | < 0.004 µM
Cc1ccc(C(C)N(C)c2ncc3c(N)nc(N)nc3n2)c2ccccc12 (centres unmarked) [Compound 62] |  |  |  |  |  |  |  |  |  |  |  |  | 40% |  | 0.802 µM
